Earlier results as cited in paper PMC4728427, “Mechanism of allosteric activation of TMEM16A/ANO1 channels by a commonly used chloride channel blocker” (British Journal of Pharmacology, 2016).
Like-named read-outs stand apart in the source and are kept apart here.

Legend:
CaCC currents (TMEM16A) = system: CaCC currents (TMEM16A); parameters: method as in Namkung et al., 2011b; settings: ref Namkung et al., 2011b; read-out: EC50 activation of CaCC currents; cited from earlier work
bestrophin 1 = system: bestrophin 1; parameters: method as in Oh et al., 2013; settings: ref Oh et al., 2013; cited from earlier work
TMEM16A [1] = system: TMEM16A; parameters: method as in Oh et al., 2013; settings: ref Oh et al., 2013; read-out: IC50 TMEM16A inhibition; cited from earlier work
CFTR = system: CFTR; parameters: method as in Oh et al., 2013; settings: ref Oh et al., 2013; cited from earlier work
ClC‐2 = system: ClC‐2; parameters: method as in Oh et al., 2013; settings: ref Oh et al., 2013; cited from earlier work
[2] = system: head and neck squamous cell carcinoma; parameters: method as in Duvvuri et al., 2012; settings: ref Duvvuri et al., 2012; cited from earlier work
TMEM16A [3] = system: TMEM16A; parameters: method as in Namkung et al., 2011a; settings: ref Namkung et al., 2011a; read-out: IC50 TMEM16A inhibition; cited from earlier work

Question: For COCCN(C(=O)c1cc(OC)c(OC)c(OC)c1)c1nc(-c2ccccc2)cs1 [Eact], which EC50 (CaCC currents (TMEM16A)) is on record?
Answer: Its EC50 is 3000 to 6000 nM.

Question: For COc1cc(Nc2ccc([N+](=O)[O-])cc2C(=O)O)cc2ccccc12 [MONNA], which “interaction with bestrophin 1” value (bestrophin 1) is on record?
Answer: Its value is “does not interact”.

Question: And the IC50 (TMEM16A [1])?
Answer: Its IC50 is ~1000 nM.

Question: And the “interaction with CFTR” value (CFTR)?
Answer: The value was “does not interact”.

Question: And the “interaction with ClC‐2” value (ClC‐2)?
Answer: Its value is “does not interact”.

Question: Which results are given for CCc1c(C)nc(SCC(=O)Nc2nc(-c3ccc(OC)cc3)cs2)[nH]c1=O [T16inh‐A01]?
Answer: tumour growth [2]: reduced tumour growth; IC50 (TMEM16A [3]): ~1000 nM
